Results: patent US20060281110A1, “Methods to identify antimicrobial compounds that interrupt ribosome biogenesis” (MICHIGAN STATE UNIVERSITY, priority 2005, published 2006)

How the values were obtained:
50S subunit = conditions: incubated 10 minutes at 37° C.; 10-25% sucrose gradient; FIG. 16
Description: (§1) The data was collected from 12% SDS-PAGE electrophoresis and blotted to a nylon membrane using standard Western Blot analysis. Incubations using rabbit polyclonal YlqF antibody was followed by horseradish peroxidase-conjugated goat anti-rabbit antibody and Western Lightning® (PerkinElmer) chemiluminescent detection. Purified YlqF-His6 was added as a comparative marker.
(§2) A B. subtilis strain was constructed that expresses a YlqF-His6 fusion protein as the only functional YlqF copy in the cell. […] The YlqF-His6 fusion protein was purified and tested for association with purified 45S intermediates and mature 50S subunits. YlqF-His6 and either the 45S intermediate or 50S subunits were mixed and incubated for 10 minutes at 37° C. The mixtures were then fractionated on 10-25% sucrose gradients and individual fractions corresponding to the 45S and 50S peaks were collected. […] Although it is not necessary to understand the mechanism of an invention, it is believed that YlqF functions as a factor involved in the biogenesis of the 50S subunit.

45S intermediate = test: In vitro association of YlqF-His6 with ribosomal particles (sucrose gradient, Western blot); type: binding, B. subtilis; conditions: incubated 10 minutes at 37° C.; 10-25% sucrose gradient; FIG. 16
Description: as §1, §2

YlqF-His6: purified His6 fusion to the C-terminus of B. subtilis GTPase YlqF
binding to mature 50S subunit (50S subunit): not the 50S subunit
binding to 45S intermediate (45S intermediate): able to bind the 45S intermediate
